{"source": "patent US11332395B2", "about": "“Sanitary food washing stage in food production” (CHEMTREAT, INC., priority 2019, dated 2022)", "key": {"[1]": {"conditions": "spray table water, initial pH 6.3, 60° F", "method": "Water samples were taken from the spray table of a sugar beet factory. […] The hydrogen peroxide concentration was measured periodically over a 60 minute period. The oxidation-reduction potential (ORP) was measured over the same period."}, "[2]": {"conditions": "flume return (clarifier inlet) water, initial pH 6.4, 62° F", "method": "Water samples were taken from the flume return (clarifier inlet) in a sugar beet factory. […] The hydrogen peroxide concentration was measured periodically over a 60 minute period. The oxidation-reduction potential (ORP) was measured over the same period."}, "[3]": {"conditions": "initial dose 60 ppm, time 5 min"}, "[4]": {"conditions": "initial dose 60 ppm, time 30 min"}, "[5]": {"conditions": "initial dose 60 ppm, time 45 min"}, "[6]": {"conditions": "initial dose 60 ppm, time 60 min"}, "[7]": {"conditions": "initial dose 120 ppm, time 5 min"}, "[8]": {"conditions": "initial dose 120 ppm, time 30 min"}, "[9]": {"conditions": "initial dose 120 ppm, time 45 min"}, "[10]": {"conditions": "initial dose 120 ppm, time 60 min"}, "[11]": {"conditions": "initial dose 180 ppm, time 5 min"}, "[12]": {"conditions": "initial dose 180 ppm, time 30 min"}, "[13]": {"conditions": "initial dose 180 ppm, time 45 min"}, "[14]": {"conditions": "initial dose 180 ppm, time 60 min"}}, "note": "Where two headings read alike, the source gives them in different places.", "data": [{"molecule": "OO", "note": "[H2O2, hydrogen peroxide]", "values": [{"measurement": "H2O2 concentration", "setting": "[1]; [3]", "value": 50, "unit": "ppm"}, {"measurement": "H2O2 concentration", "setting": "[1]; [4]", "value": 5, "unit": "ppm"}, {"measurement": "H2O2 concentration", "setting": "[1]; [5]", "value": 0.5, "unit": "ppm"}, {"measurement": "H2O2 concentration", "setting": "[1]; [6]", "value": "<0.5", "unit": "ppm"}, {"measurement": "H2O2 concentration", "setting": "[1]; [7]", "value": ">100", "unit": "ppm"}, {"measurement": "H2O2 concentration", "setting": "[1]; [8]", "value": 15, "unit": "ppm"}, {"measurement": "H2O2 concentration", "setting": "[1]; [9]", "value": 2, "unit": "ppm"}, {"measurement": "H2O2 concentration", "setting": "[1]; [10]", "value": 1, "unit": "ppm"}, {"measurement": "H2O2 concentration", "setting": "[1]; [11]", "value": ">100", "unit": "ppm"}, {"measurement": "H2O2 concentration", "setting": "[1]; [12]", "value": 25, "unit": "ppm"}, {"measurement": "H2O2 concentration", "setting": "[1]; [13]", "value": 5, "unit": "ppm"}, {"measurement": "H2O2 concentration", "setting": "[1]; [14]", "value": 3, "unit": "ppm"}, {"measurement": "H2O2 concentration", "setting": "[2]; [3]", "value": 50, "unit": "ppm"}, {"measurement": "H2O2 concentration", "setting": "[2]; [4]", "value": 3, "unit": "ppm"}, {"measurement": "H2O2 concentration", "setting": "[2]; [5]", "value": 0.5, "unit": "ppm"}, {"measurement": "H2O2 concentration", "setting": "[2]; [6]", "value": 0, "unit": "ppm"}, {"measurement": "H2O2 concentration", "setting": "[2]; [7]", "value": ">100", "unit": "ppm"}, {"measurement": "H2O2 concentration", "setting": "[2]; [8]", "value": 10, "unit": "ppm"}, {"measurement": "H2O2 concentration", "setting": "[2]; [9]", "value": 3, "unit": "ppm"}, {"measurement": "H2O2 concentration", "setting": "[2]; [10]", "value": "<0.5", "unit": "ppm"}, {"measurement": "H2O2 concentration", "setting": "[2]; [11]", "value": ">100", "unit": "ppm"}, {"measurement": "H2O2 concentration", "setting": "[2]; [12]", "value": 25, "unit": "ppm"}, {"measurement": "H2O2 concentration", "setting": "[2]; [13]", "value": 5, "unit": "ppm"}, {"measurement": "H2O2 concentration", "setting": "[2]; [14]", "value": 1, "unit": "ppm"}]}]}
